In patent US6444677B2, “5-membered heteroaryl substituted 1,4-dihydropyridine compounds as bradykinin antagonists” (Pfizer Inc., priority 1999, dated 2002):
Counter-ions that a name gives are not always drawn.

Row | SMILES | melting point
1 | COC(=O)C1=C(CCc2nccs2)NC(CC(=O)N2CCN(CC3(C#N)CCCCC3)CC2)=C(C(=O)OC)C1c1c(Cl)cccc1Cl (centres unmarked) (as salt: HCl) [Example 1, Dimethyl 2-[2-[4-[(1-cyanocyclohexyl)methyl]-1-piperazinyl]-2-oxoethyl]-4-(2,6-dichlorophenyl)-6-[2-(1,3-thiazol-2-yl)ethyl]-1,4-dihydro-3,5-pyridinedicarboxylate] | 211 to 213 °C (dec.)
2 | COC(=O)C1=C(CCc2nccs2)NC(CC(=O)N2CCN(CC3(CN)CCCCC3)CC2)=C(C(=O)OC)C1c1c(Cl)cccc1Cl (centres unmarked) (as salt: HCl) [Example 2, Dimethyl 2-[2-[4-[[1-(aminomethyl)cyclohexyl]methyl]-1-piperazinyl]-2-oxoethyl]-4-(2,6-dichlorophenyl)-6-[2-(1,3-thiazol-2-yl)ethyl]-1,4-dihydro-3,5-pyridinedicarboxylate] | 206 to 210 °C (dec.)
3 | CCNCC1(CN2CCN(C(=O)CC3=C(C(=O)OC)C(c4c(Cl)cccc4Cl)C(C(=O)OC)=C(CCc4nccs4)N3)CC2)CCCCC1 (centres unmarked) (as salt: HCl) [Example 3, Dimethyl 4-(2,6-dichlorophenyl)-2-[2-[4-[[1-[(ethylamino)methyl]cyclohexyl]methyl]-1-piperazinyl]-2-oxoethyl]-6-[2-(1,3-thiazol-2-yl)ethyl]-1,4-dihydro-3,5-pyridinedicarboxylate] | 206 to 210 °C (dec.)
4 | COC(=O)C1=C(CCc2nccs2)NC(CC(=O)N2CCN(CC3(N)CCCCC3)CC2)=C(C(=O)OC)C1c1c(Cl)cccc1Cl (centres unmarked) (as salt: HCl) [Example 6, Dimethyl 2-[2-[4-[(1-aminocyclohexyl)methyl]-1-piperazinyl]-2-oxoethyl]4-(2,6-dichlorophenyl)-6-[2-(1,3-thiazol-2-yl)ethyl]-1,4-dihydro-3,5-pyridinedicarboxylate] | 210 to 220 °C (dec.)
5 | COC(=O)C1=C(CCc2nccs2)NC(CC(=O)N2CCN(CC3(CNC4CCCC4)CCCC3)CC2)=C(C(=O)OC)C1c1c(Cl)cccc1Cl (centres unmarked) (as salt: HCl) [Example 11, Dimethyl 2-[2-[4-[[1-[(cyclopentylamino)methyl]cyclopentyl]methyl]-1-piperazinyl]-2-oxoethyl]-4-(2,6dichlorophenyl)-6-[2-(1,3-thiazol-2-yl)ethyl]-1,4-dihydro-3,5-pyridinedicarboxylate] | 174 to 177 °C (dec.)
6 | CCN(CC)C1C2CCC1CC(N1CCN(C(=O)CC3=C(C(=O)OC)C(c4c(Cl)cccc4Cl)C(C(=O)OC)=C(CCc4nccs4)N3)CC1)C2 (centres unmarked) (as salt: HCl) [Example 12, Dimethyl 4-(2,6-dichlorophenyl)-2-[2-[4-(8-(diethylamino)bicyclo [3.2.1]oct-3-yl)-1-piperazinyl]-2-oxoethyl]-6-[2-(1,3-thiazol-2-yl)ethyl]-1,4-dihydro-3,5-pyridinedicarboxylate] | 200 to 205 °C (dec.)
7 | COC(=O)C1=C(CCc2nccs2)NC(CC(=O)N2CCN(CCC(C)(C)N3CCCC3=O)CC2)=C(C(=O)OC)C1c1c(Cl)cccc1Cl (centres unmarked) (as salt: HCl) [Example 20, Dimethyl 4-(2,6-dichlorophenyl)-2-[2-[4-[3-methyl-3-(2-oxo-1-pyrrolidinyl)butyl]-1-piperazinyl]-2-oxoethyl]-6-[2-(1,3-thiazol-2-yl)ethyl]-1,4-dihydro-3,5-pyridinedicarboxylate] | 179 °C (dec.)
8 | COC(=O)C1=C(CCc2nccs2)NC(CC(=O)N2CCN(CCCN3CCCC3=O)CC2)=C(C(=O)OC)C1c1c(Cl)cccc1Cl (centres unmarked) (as salt: HCl) [Example 22, Dimethyl 4-(2,6-dichlorophenyl)-2-[2-oxo-2-[4-[3-(2-oxo-1-pyrrolidinyl)propyl]-1-piperazinyl]ethyl]-6-[2-(1,3-thiazol-2-yl)ethyl]-1,4-dihydro-3,5-pyridinedicarboxylate] | 185 to 190 °C (dec.)
